One series concerns HL-60. As to the kind of experiment: MTT assay, HL-60 cells. In kind it is cell-based. As to conditions: Homo sapiens, HL-60 (no p53). On the technique in general: Tetrazolium dyes change colour on reduction, which living cells bring about.
The next series concerns xanthine oxidase. As to the kind of experiment: Effect on xanthine oxidase. Format: biochemical. As to conditions: 1-100 μM.
Series [1] concerns bovine alkaline phosphatase. As to the kind of experiment: Effect on alkaline phosphatase (removal of 5'-phosphate from [14C]GMP). In kind it is biochemical. As to conditions: 1-100 μM.
The target in another series is SOD. As to the kind of experiment: SOD inhibition in vitro (restated, enzyme not specified). In kind it is biochemical. As to conditions: restated in discussion.
A further series deals with CuZnSOD (SOD1) mRNA. As to the kind of experiment: cDNA microarray assay of gene expression. The note with it: 5 h after 2-ME incubation; normalized by three internal standards. Format: cell-based, human.
The test system of another series is AML cells. As to the kind of experiment: MTT assay, primary AML cells. Format: cell-based, human. As to conditions: 30 μM, 6 patients.
The subject of a further series is CuZnSOD. As to the kind of experiment: Inhibition of CuZnSOD by estrogen derivatives. In kind it is biochemical. The note with it: FIG. 20.
The subject of series [2] is leukemia cell lines, primary CLL cells, and normal lymphocytes. As to the kind of experiment: Cellular accumulation of [3H]2-ME. In kind it is in vitro ADME, human. The note with it: 1 μM [3H]2-ME, 5-h incubation. How it is done: To determine cellular uptake of 2-ME, cells were incubated with 1 μM [^3H]2-ME (0.5 μCi/ml) for 5 h and when washed twice with cold PBS. Radioactivity associated with the cell pellets or the culture medium was quantitated by liquid scintillation counting. 2-ME concentrations were calculated based on the specific radioactivity of [^3H]2-ME, cell number, and the mean cell volume as measured by a Coulter Counter equipped with a 256-Channelyzer. HPLC was used to analyze potential cellular metabolites of 2-ME. Cells were incubated with [^3H]2-ME (0.5 μCi/ml) for 5 h, washed twice with PBS, and then extracted with 50% methanol. The extracts were analyzed by HPLC equipped with a UV detector (284 nm) and an on-line liquid scintillation counter, using a μBondapak C18 reversed-phase column and the following running conditions: 1 ml/min; 0-5 min, 100% buffer A (water:acetontrile:acetic acid=59:40:1); 5-17 min, a linear gradient of 0->100% buffer B (water:acetontrile:acetic acid=39:60:1); 17-30 min, 100% B.

The target of the next series is T1, bovine CuZnSOD (Bos taurus, UniProt P00442).
T1 construct: purchased Boehringer Mannheim
T1 sequence (P00442 whole entry): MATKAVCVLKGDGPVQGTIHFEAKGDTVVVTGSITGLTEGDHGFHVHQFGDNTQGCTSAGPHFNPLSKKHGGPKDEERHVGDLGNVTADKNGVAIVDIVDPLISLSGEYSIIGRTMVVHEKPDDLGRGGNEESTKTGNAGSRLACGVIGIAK
As to the kind of experiment: In vitro SOD activity assay, bovine CuZnSOD. Format: biochemical. The note with it: purified enzyme; read-out: IC50, inhibition of bovine CuZnSOD. How it is done:
A spectrophotometric assay was used to determine the effect of 2-methoxyestradiol (2-ME) on SOD activity in vitro with purified enzymes (bovine CuZnSOD from Boehringer Mannheim; human CuZnSOD and E. coli MnSOD from Sigma). The reactions contained 2.5 ml of 50 mM Na2CO3, 0.1 ml of 3 mM xanthine, 0.1 ml of 3 mM EDTA, and 0.1 ml of 0.8 mM XTT (3′-(1-[phenylamino-carbonyl]3,4-tetrazolium)-bis(4-methoxy-6-nitro)benzene-sulfonic acid hydrate), and the indicated concentrations of SOD and 2-ME. Xanthine oxidase (0.1 ml, 64 mU/ml) was added to start the reaction. After incubation at 24° C. for 30 min, the absorbance at 470 nm was measured. The relative activity (RA) of SOD was calculated by the following formula: […]
where a is the absorbance of reaction without SOD, b is the absorbance of reaction with SOD but without 2-ME, c is the absorbance of reaction with SOD in the presence of 2-ME. All values were subtracted by the background reading of the blank. In separate experiments using nitro blue tetrazolium or cytochrome c as substrates for SOD assay, 2-ME and DMSO (as a solvent for 2-ME) interfered with the calorimetric reaction. These artifacts preclude the use of NBT or cytochrome c as the substrates for measuring the effect of 2-ME on SOD activity. Neither 2-ME nor DMSO affect the calorimetric reaction of XTT.

Another series deals with ALL cells. As to the kind of experiment: MTT assay, primary ALL cells. Format: cell-based, human. As to conditions: 30 μM, 2 patients.
For a further series, the system named is ML-1. As to the kind of experiment: H2O2 generation in cell culture, ML-1 cells. In kind it is cell-based, human.

Excerpt for CuZnSOD (SOD1) mRNA: The Atlas™ Human cDNA Expression Array I and the Atlas™ Human Cancer cDNA Expression Array (ClonTech Laboratories, Inc.) were used in this study. One microgram of mRNA isolated from the control or drug-treated cells was converted to radioactive cDNA by reverse transcription in the presence of [α-^32P]-dATP. The ^32P-labeled cDNA was then denatured and hybridized to the eDNA expression arrays according to the procedures recommended by the manufacturer. The radioactivity on the membranes was quantified by a phosphoimager.

What is called IC50 is the concentration needed to halve the response being measured. As for `COc1cc2c(cc1O)CC[C@@H]1[C@@H]2CC[C@]2(C)[C@@H](O)CC[C@@H]12` [2-ME, 1,3,5(10)-estratrien-2,3,17b-triol 2 methylether], the values for the IC50 in the series with HL-60, against SOD and at bovine CuZnSOD were less than 1 µM, roughly 20 µM and roughly 20 µM, respectively. In addition, the “effect on xanthine oxidase” value with xanthine oxidase was “little effect”. Besides, the “effect on alkaline phosphatase” value in series [1] is given as “little effect”. Also, the “expression of CuZnSOD mRNA, % of the control” value with CuZnSOD (SOD1) mRNA came out at 236%. Besides, the cell survival in the series on AML cells came out at 49.6%; with ALL cells, 56.5%. Further, the “inhibition of SOD activity” value with CuZnSOD is “substantially inhibited SOD activity”. The “intracellular concentrating of drug” value in series [2] is “approximately 10 fold”. In addition, the H2O2 production result in the series on ML-1 is on record as “concentration-dependent decrease of H2O2”.

Values taken from patent publication US20020106348A1, “Cancer therapeutics involving the administration of 2-methoxyestradiol and an agent that increases intracellular superoxide anion” (priority 2000, published 2002).
